Experimental data from US20240342135A1, “USE OF NITRATE AND VITAMIN C MICROCAPSULE FOR TREATING SICCA SYNDROME” (CAPITAL MEDICAL UNIVERSITY, priority 2021, published 2024).
Marks after values point to notes of the source that are not given here.

Experiments:
[1] = In vivo test: nitrate content in the blood of mice after single gastric gavage; details: 2 mmol/kg sodium nitrate, once
Method: Blood was collected from vena caudalis at 0 h, and 2, 4, 6, 12, and 24 h after gastric gavage, respectively.

[2] = system: NOD/Itj mice; assay: Salivary flow rate of NOD/Itj mice (animal model of SS); type: in vivo; details: for effect on salivary flow rate of NOD/Itj mice (in words): gastric gavage; for Salivary flow rate (mean value ± SD): NOD/Itj mice, gastric gavage from 8th week, microcapsules 0.4 mmol/kg NO3−, NaNO3 0.4 mmol/kg, Vc 2 mmol/kg
Method: Therefore, the NOD/Itj mouse can be used as an animal model of SS. Subsequently, the microcapsules of the present invention were administered by gastric gavage, the saliva flow rate was monitored, and the experimental samples were collected at the 12th week to observe the prophylactic and therapeutic effects of the microcapsules of the present invention on SS.
After proper anaesthesia, the mice were injected I.P. with pilocarpine nitrate in aseptic normal saline at a concentration of 0.4 mg/ml and a dosage of 0.5 mg/100 g b.w. After the injection, the mice were laid on a 20° inclined mouse board on prone position, with the head slightly inclined downward, so that the head was in a slightly lower position. About 5 minutes after the injection, after the first drop of saliva from the mouth of the mouse, after 5 minutes, the time was recorded and the saliva was collected, and the amount of saliva was collected for 20 minutes (the amount of saliva is detected by inserting a small sterile cotton ball with known weight under the tongue of mouse, and weighing cotton ball 20 minutes later).
(§1) Saliva flow rate was measured […].

[3] = system: NOD/Itj mice; assay: Lymphocyte infiltration in submandibular gland of NOD/Itj mice (HE staining, Image J); type: in vivo; details: 14th week, gastric gavage from 8th week, microcapsules 0.4 mmol/kg NO3−, NaNO3 0.4 mmol/kg, Vc 2 mmol/kg
Method: The salivary flow rate was measured every two weeks from the 8th week after birth, and the saliva was collected. At the same time, the submandibular gland samples were collected and stained with HE for histological observation, and the degree of lymphocyte infiltration was analyzed by Image J.
After the experimental animals were sacrificed, they were placed on supine position, disinfected, and the neck was incised to dissect the submandibular gland completely. The tissues were washed with PBS, cut into 0.2 cmx 0.2 cm, and fixed in 4% paraformaldehyde (pH 7.2) at 4° C. for 24-48 h. After dehydration, wax impregnation and embedding, the tissues were sectioned at a thickness of 4 μm and baked, followed by hematoxylin and eosin (HE) staining. The remaining fresh samples were placed in a refrigerator at −80° C.
as §1

[4] = after oral administration; cited from earlier work

O=[N+]([O-])[O-].[Na+] [NaNO3, sodium nitrate]
Nitrate content in the blood of the mice after single administration ([1]; 0 h): 41.8 µmol/L | Nitrate content in the blood of the mice after single administration ([1]; 2 h): 1052.8 µmol/L | Nitrate content in the blood of the mice after single administration ([1]; 4 h): 572.4 µmol/L | Nitrate content in the blood of the mice after single administration ([1]; 6 h): 297.4 µmol/L | Nitrate content in the blood of the mice after single administration ([1]; 12 h): 45.3 µmol/L | Nitrate content in the blood of the mice after single administration ([1]; 24 h): 32.7 µmol/L | effect on salivary flow rate of NOD/Itj mice (in words) [2]: no obvious influence | Salivary flow rate (mean value ± SD) ([2]; week 8): 0.078 ± 0.011 g/10 min | Salivary flow rate (mean value ± SD) ([2]; week 9): 0.068 ± 0.006 g/10 min | Salivary flow rate (mean value ± SD) ([2]; week 10): 0.060 ± 0.004 g/10 min | Salivary flow rate (mean value ± SD) ([2]; week 11): 0.057 ± 0.004 g/10 min | Salivary flow rate (mean value ± SD) ([2]; week 12): 0.061 ± 0.009 g/10 min | Salivary flow rate (mean value ± SD) ([2]; week 13): 0.062 ± 0.007 g/10 min | Salivary flow rate (mean value ± SD) ([2]; week 14): 0.059 ± 0.009 g/10 min | Infiltration area of the submandibular gland [3]: 4.42 ± 0.54^b %

O=C1O[C@H]([C@@H](O)CO)C(O)=C1O [Vc, vitamin C]
half-life in vivo [4]: 2 h | effect on salivary flow rate of NOD/Itj mice (in words) [2]: no obvious influence | Salivary flow rate (mean value ± SD) ([2]; week 8): 0.077 ± 0.012 g/10 min | Salivary flow rate (mean value ± SD) ([2]; week 9): 0.063 ± 0.008 g/10 min | Salivary flow rate (mean value ± SD) ([2]; week 10): 0.049 ± 0.007 g/10 min | Salivary flow rate (mean value ± SD) ([2]; week 11): 0.041 ± 0.008 g/10 min | Salivary flow rate (mean value ± SD) ([2]; week 12): 0.038 ± 0.006 g/10 min | Salivary flow rate (mean value ± SD) ([2]; week 13): 0.035 ± 0.008 g/10 min | Salivary flow rate (mean value ± SD) ([2]; week 14): 0.034 ± 0.007 g/10 min | Infiltration area of the submandibular gland [3]: 5.16 ± 0.58%
